In ChEMBL document CHEMBL3507680, “University of Dundee, Gates Library screen for HepG2 cell viability”:

Assay: Human HepG2 cell viability assay in 384 well format
Assay type: toxicity, cell-based
Set-up: dose 125 nL, time 70.5 hour; concentration not given beside the values
Conditions: HepG2 cells, read-out: Inhibition

Row | Structure (SMILES) | cytotoxicity at 70.5 h [%]
1 | Cc1nn(C)c2ncc(NC(=O)N3CCCCCC3)cc12 | -4.95
2 | Cc1noc(C)c1CN(C)C(=O)C1CCCc2ccccc21 (configuration not stated) | -0.492
3 | CC(C)c1nn(C)c(N(C)C)c1CNC1CCOc2ccccc21 (configuration not stated) | 7.29
4 | O=C(CCn1cnc2cc(F)c(F)cc21)N1CCN(C2CC2)CC1 | -5.93
5 | Cn1c(CN2CCCC(N3CCNC3=O)C2)cc(=O)n(C)c1=O (configuration not stated) | 26.4
6 | Cn1c(CN2CCCC(N3CCCCCC3)C2)cc(=O)n(C)c1=O (configuration not stated) | -4.65
7 | COc1ccc(OC)c(CN2CCN(Cc3cscn3)CC2)c1 | -5.74
8 | Cc1cnn(CC(C)Nc2cnc3ccccc3n2)c1 (configuration not stated) | 4.57
9 | CCC(=O)NCC(=O)NC(C)c1ccc(OCCC(C)C)cc1 (configuration not stated) | -2.78
10 | CC(C)OCCC(=O)NCC(O)c1c(F)cccc1F (configuration not stated) | -6.84
11 | Cc1ccc(S(=O)(=O)N2CCOCC2C#N)c(F)c1 (configuration not stated) | 2.28
12 | CN1CC(NC(=O)Nc2cnn(-c3ccccc3Cl)c2)CCC1=O (configuration not stated) | -3.58
13 | O=C(COc1ccc2c(c1)OCC2O)NCc1ccco1 (configuration not stated) | -0.449
14 | COc1ccccc1CNC(=O)COc1ccc2c(c1)OCC2O (configuration not stated) | -5.21
15 | COC(=O)CN(C(=O)c1cccc(F)c1Cl)c1cccc(C)n1 | 1.83
16 | COC(=O)CN(C(=O)c1cc(C)c(F)cc1F)c1cccc(C)n1 | -5.14
17 | CCC(c1ccccc1)N1CCN(CCO)CC1 (configuration not stated) | -6.76
18 | Cc1ccc(CN(C)C(=O)CCn2c(=O)n(C)c3ccccc32)o1 | -6.04
19 | COC(=O)CN(C(=O)C(C)c1c(F)cccc1F)c1cccc(C)n1 (configuration not stated) | -4.95
20 | CCCn1c(=O)n(CCC(=O)N(C)Cc2ccc(C)o2)c2ccccc21 | -4.98
21 | CC(C)c1nn(C)c(N(C)C)c1CNC1CCCOc2ccccc21 (configuration not stated) | 31.4
22 | CCN(CC(C)C#N)C(=O)CNc1cc(Cl)ccc1C(N)=O (configuration not stated) | 3.41
23 | O=C(NCC1CC1)c1ccc(NC(=O)c2ccco2)cc1 | -5.31
24 | COc1ccccc1CCNS(=O)(=O)N1CCOCC1 | -11.8

Row | Structure (SMILES) | cytotoxicity at 70.5 h [%]
25 | O=C(c1cc2c(s1)CCC2)N1CCN(c2cnccn2)CC1 | -14.9
26 | CC1CN(C(=O)Nc2cc(C(F)(F)F)c[nH]c2=O)CC(C)(C)O1 (configuration not stated) | -8.86
27 | COC(=O)c1ccc(NC(C)c2ccc3c(c2)CC(=O)N3)nn1 (configuration not stated) | -10.3
28 | CCc1ccc(S(=O)(=O)N2CCCn3ncnc32)s1 | -3.85
29 | O=S(=O)(c1ccc(Cl)s1)N1CCCn2ncnc21 | -1.11
30 | CCS(=O)(=O)CCSc1ccc(Br)cc1 | -6.15
31 | CCc1nc(C2CCCN(c3nccc(N4CCCC4)n3)C2)no1 (configuration not stated) | -0.206
32 | CN(C)C(=O)c1cccc(CCNS(=O)(=O)c2ccccc2)c1 | -1.77
33 | CCOc1ccc(Cl)cc1CCNC(=O)N1CCCC(CO)C1 (configuration not stated) | -7.21
34 | CCn1nc(C)cc1C(=O)OCCNC(=O)c1ccccc1 | -0.786
35 | COc1c(CNCc2ccccc2-n2ccnc2)c(C)nn1C | 8.51
36 | CCOc1cc(Cl)ccc1CNC(=O)N1CCCC(CO)C1 (configuration not stated) | -9.17
37 | COc1c(CNCc2ccccc2Cn2cccn2)c(C)nn1C | -5.48
38 | COCCn1cc(C(=O)N2CCCC2c2cccs2)c2ccccc21 (configuration not stated) | 7.25
39 | Cc1cc(CC(=O)NCC(O)COc2ccc(F)c(F)c2)n[nH]1 (configuration not stated) | 17.8
40 | Cc1nnc(C(C)Nc2ccc(OCCc3ccccc3)nc2)o1 (configuration not stated) | 0.291
41 | CN(C)c1ccc(C(=O)N2CCCC2c2ccc(Cl)cc2)cc1 (configuration not stated) | -4.22
42 | CC(C)c1noc(CCC(=O)N2CCN(C)CC2c2ccccc2)n1 (configuration not stated) | -9.08
43 | CCC(C)(CNC(=O)Nc1nccs1)N1CCOCC1 (configuration not stated) | -8.6
44 | Cc1noc(CCCC(=O)N2CCN(C)CC2c2ccccc2)n1 (configuration not stated) | 29.2
45 | CC(C)c1noc(CCCC(=O)N2CCN(C)CC2c2ccccc2)n1 (configuration not stated) | -8.67
46 | CC(NC(=O)N1CCc2ccccc21)c1nncn1C (configuration not stated) | -12.2
47 | CC(=O)N(C)CC(=O)NC1(c2ccc(Cl)c(Cl)c2)CC1 | -10
48 | N#Cc1ccc(CN2CCCN(C(=O)CCn3cncn3)CC2)cc1 | -10.9

Row | Structure (SMILES) | cytotoxicity at 70.5 h [%]
49 | COc1cc2c(cc1OC)CN(C(=O)NC(C)c1nncn1C)CC2 (configuration not stated) | 26.1
50 | O=C(c1ccc(-n2ccnc2)nc1)N1CCN2CCCCC2C1 (configuration not stated) | -10.4
51 | Cc1cc(C)cc(N(C)S(=O)(=O)c2cc3c(c(C(=O)O)c2)OCCO3)c1 | -12.8
52 | CN(C)c1ccc(C(=O)N2CCCC2c2cnn(C)c2)nn1 (configuration not stated) | -11.7
53 | CN(c1ccccc1)S(=O)(=O)c1cc2c(c(C(=O)O)c1)OCCO2 | -9.42
54 | Cc1ccccc1CS(=O)(=O)c1nnc(N2CCOCC2)s1 | 8.66
55 | CNC(=O)c1cccnc1N1CCN(C/C=C/c2ccccc2)CC1 | 6.62
56 | COc1cc(C(C)NCc2c[nH]nc2C)ccc1OCCO (configuration not stated) | 7.95
57 | CC(=O)NCCCSC1CCN(c2ccccc2Cl)C1=O (configuration not stated) | -10.2
58 | Cn1cc(C(=O)CC2CCCN2C(=O)c2ccc(Cl)o2)cn1 (configuration not stated) | 2.73
59 | Cn1cc(C(=O)CC2CCCN2C(=O)c2ccc(Cl)cn2)cn1 (configuration not stated) | -8.95
60 | CCc1nc(C2CCCN(C(=O)C3=NN(C(C)C)C(=O)CC3)C2)no1 (configuration not stated) | -13.3
61 | CCN1N=C(C(=O)N2CCCC(c3noc(C)n3)C2)CCC1=O (configuration not stated) | 22.2
62 | COc1cc(C(=O)N2CCCC2CC(=O)c2cnn(C)c2)ccc1F (configuration not stated) | 8.93
63 | CCCc1n[nH]c(C2CN(Cc3ncc[nH]3)CCO2)n1 (configuration not stated) | 4.94
64 | N#Cc1cn(CCCN2CCc3ccccc32)c(=O)[nH]c1=O | 21.5
65 | O=C(Cn1cc(Cl)cn1)Nc1ccc2c(c1)OCO2 | -2
66 | O=C(NC1CC1)C1CCCN(c2cccc(C(F)(F)F)n2)C1 (configuration not stated) | -5.01
67 | CC(C(=O)N1CCN(C(=O)c2ccc(F)cc2F)CC1)n1ccnc1 (configuration not stated) | -4.77
68 | O=C(CN1CCS(=O)(=O)CC1)NC1CCCCc2ccccc21 (configuration not stated) | -1.09
69 | CCc1cc(=O)[nH]c(-c2ccc(NCCc3ccc(O)cc3)nc2)n1 | -3.24
70 | Cn1c(C2CC2)nc2cc(NC(=O)C3(O)CCCC3)ccc21 | -4.26
71 | Cc1c(NCc2ccc(C#N)cc2)cccc1S(=O)(=O)NC1CC1 | 1.12
72 | Cc1c(NCc2cccc(C#N)c2)cccc1S(=O)(=O)NC1CC1 | 4.95

Row | Structure (SMILES) | cytotoxicity at 70.5 h [%]
73 | CC(CS(C)(=O)=O)N(C(=O)CCc1ccsc1)C1CC1 (configuration not stated) | -4.58
74 | C1CCC(CSc2nnnn2C2CC2)OC1 (configuration not stated) | -0.703
75 | Cc1ccc(C(=O)N2CCN(C(=O)C(C)n3ccnc3)CC2)cc1F (configuration not stated) | -5.92
76 | CN(C(=O)CCC(F)(F)F)c1cccc2ncccc12 | 42.6
77 | Cc1ccc(C(=O)NCc2ccc(N(C)C)cc2)cn1 | -10.4
78 | Cc1ccccc1CS(=O)(=O)Cc1nc(C2CC2)no1 | -3.39
79 | O=C(Cc1ccc2c(c1)CCO2)Nc1cccnc1-n1cncn1 | 16.3
80 | COc1ccc(N(C)C(=O)c2ccc(Cl)c(S(C)(=O)=O)c2)cn1 | -2.77
81 | O=C(NCCN1CCOCC1)c1ccc(OCc2ccccc2)nc1 | -1.05
82 | Cc1cccc(NC(=O)CN(C)C(=O)c2ccc(OC(C)C)nc2)n1 | -2.88
83 | O=C(Nc1ccc(Cl)cn1)C1CCCN(Cc2ccccn2)C1 (configuration not stated) | -1.12
84 | CCc1noc(CS(=O)(=O)Cc2ccccc2C)n1 | 15
85 | CCc1noc(CS(=O)(=O)Cc2nc(Cc3ccccc3)no2)n1 | -5.38
86 | Cc1ccc(C(=O)N(C)CC(=O)Nc2cccc(C)n2)cn1 | -6.04
87 | Cc1nn(C)c(C)c1NC(=O)CN1CCCC1c1noc(C(C)C)n1 (configuration not stated) | -5
88 | CCOc1ccc(NC(C)C(=O)NCCc2cccs2)cc1CO (configuration not stated) | -3.5
89 | COc1c(C2CCCN2C(=O)c2ccoc2C)c(C)nn1C (configuration not stated) | 7.26
90 | CC(NC(=O)CCCOc1cccc(F)c1)c1ccncc1 (configuration not stated) | -4.8
91 | CCn1ccnc1CN1CCN(Cc2cnc(C)cn2)CC1C (configuration not stated) | 4.47
92 | O=C(NCCCOCc1ccco1)c1cccnc1N1CCOCC1 | 6.19
93 | CCn1ccnc1CN1CCN(CCCS(C)(=O)=O)CC1C (configuration not stated) | 12.1
94 | Cc1cc(C)n(CC2CN(Cc3cccc(C#N)c3)CCO2)n1 (configuration not stated) | -3.79
95 | NC(=O)c1ccc(CN2CCCC(N3CCCCCC3)C2)cc1 (configuration not stated) | 1.67
96 | CCOc1ncccc1C(=O)N1CCCC(n2nc(C)cc2C)C1 (configuration not stated) | -5.39

Row | Structure (SMILES) | cytotoxicity at 70.5 h [%]
97 | Cc1cnn(CC2CCCN2C(=O)Cn2nc(C)c(Cl)c2C)c1 (configuration not stated) | -1.94
98 | Cc1cc(C)cc(NC(=O)CC2CN(Cc3ccccc3)CCO2)c1 (configuration not stated) | -4.17
99 | Cc1nc(C)n(C2CCCN(C(=O)CCn3ccnn3)C2)n1 (configuration not stated) | 0.306
100 | CCC1(CNC(=O)NC(c2nnc3n2CCC3)C(C)C)CCC1 (configuration not stated) | 35.2
101 | CNC(=O)N1CCCCC1c1nnc2n1CCCC2 (configuration not stated) | -0.585
102 | O=C(CC1CN(Cc2ccccc2)CCO1)Nc1ccsc1 (configuration not stated) | 8.64
103 | Cc1n[nH]c(C)c1CNC(=O)N1CCCC(Cc2nccn2C)C1 (configuration not stated) | 0.74
104 | CN(C)CC1CN(c2ncnc3ccsc23)CCO1 (configuration not stated) | 8.47
105 | CNc1cc(N2CCCC2CNCc2cccc(C#N)c2)ncn1 (configuration not stated) | 1.28
106 | Cc1ncsc1CNc1cccc(OCCN2CCCC2)c1 | 1.28
107 | Cc1ccc(C2CN(C(=O)c3c(C)cc(C)[nH]c3=O)CCO2)c(C)c1 (configuration not stated) | 9.82
108 | O=C(NCCSCc1ccc(Br)s1)C1CCCN(c2cnccn2)C1 (configuration not stated) | 10.7
109 | CCCc1nc(C)c(C(=O)NC2CCN(CC(N)=O)CC2)s1 | -11.5
110 | CC(NCc1ccccn1)c1cc2c(cc1Br)OCCO2 (configuration not stated) | -4.31
111 | O=C(NS(=O)(=O)Cc1ccc(F)cc1)C1CCc2ccccc21 (configuration not stated) | 3.78
112 | CCc1ncc2c(n1)CN(Cc1nc3c(F)cccc3[nH]1)CC2 | -5.3
113 | COc1cc(CNCCNC(=O)c2ccc(O)cc2)ccc1SC | 55.5
114 | COc1cccc(-c2n[nH]cc2CNC2CCN(C(C)C)CC2)c1 | -0.27
115 | COc1cccc(-c2n[nH]cc2CNC2CCC(O)CC2)c1 (configuration not stated) | -15.9
116 | CC(C)c1nn(C)c(N(C)C)c1CNC1CCOc2c(F)cccc21 (configuration not stated) | -2
117 | COc1ccc(C(C)NCc2c[nH]nc2C)cc1OC (configuration not stated) | -8.7
